According to patent US20250268903A1, “RXFP1 AGONISTS” (BRISTOL-MYERS SQUIBB COMPANY, priority 2021, published 2025):
pEC50: −log10 of the molar value.

Molecular target: T1, human RXFP1 (Homo sapiens, UniProt Q9HBX9)
T1 construct: expressed in transfected cells
T1 sequence (Q9HBX9 1-757): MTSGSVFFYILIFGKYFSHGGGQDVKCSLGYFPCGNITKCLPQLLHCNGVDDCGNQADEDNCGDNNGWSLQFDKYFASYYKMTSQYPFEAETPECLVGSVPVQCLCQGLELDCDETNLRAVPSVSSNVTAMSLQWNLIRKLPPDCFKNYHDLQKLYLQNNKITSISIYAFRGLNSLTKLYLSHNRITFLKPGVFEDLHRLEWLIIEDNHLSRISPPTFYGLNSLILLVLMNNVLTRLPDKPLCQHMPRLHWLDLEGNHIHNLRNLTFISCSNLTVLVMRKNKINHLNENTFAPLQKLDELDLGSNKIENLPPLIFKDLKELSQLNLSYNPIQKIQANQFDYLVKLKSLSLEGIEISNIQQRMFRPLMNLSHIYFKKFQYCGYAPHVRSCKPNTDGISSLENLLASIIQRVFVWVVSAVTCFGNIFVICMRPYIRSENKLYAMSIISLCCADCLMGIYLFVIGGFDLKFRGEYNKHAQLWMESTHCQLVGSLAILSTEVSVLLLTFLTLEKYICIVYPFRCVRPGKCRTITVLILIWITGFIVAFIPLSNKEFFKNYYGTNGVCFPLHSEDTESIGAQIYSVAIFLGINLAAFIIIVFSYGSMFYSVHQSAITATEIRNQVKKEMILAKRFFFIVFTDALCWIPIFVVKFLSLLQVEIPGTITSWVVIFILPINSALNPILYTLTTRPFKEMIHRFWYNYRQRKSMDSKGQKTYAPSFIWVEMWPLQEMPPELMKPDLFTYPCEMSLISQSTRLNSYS
Experiment: hRXFP1 HEK293 cAMP assay (HTRF)
Assay type: cell-based
Settings: HEK293 cells stably expressing human RXFP1, 30 min at room temperature
Outline: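 hRXFP1-HEK293 stable line; HBSS + Ca/Mg, 20 mM HEPES, 0.05% BSA, 0.5 mM IBMX; cpd 0.010 nM–50 μM, 2% DMSO; 30 min RT; lysis, HTRF cAMP detection; 4-PL fit.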

In order of rising pEC50:
1. COc1ccc(C)cc1C(=O)N[C@@H]1C2CCC(C2=C(C)C)[C@@H]1C(=O)Nc1ccc(F)c(C(F)(F)F)c1 (stereo partly drawn) [Example 360, (2S,3R)-N-[4-fluoro-3-(trifluoromethyl)phenyl]-3-(2-methoxy-5-methylbenzamido)-7-(propan-2-ylidene)bicyclo[2.2.1] heptane-2-carboxamide]  5.70
2. COc1ccc(S(=O)(=O)N2CCN(C(=O)OC(C)(C)C)[C@@H](CO)C2)cc1C(=O)N[C@H]1[C@@H](C(=O)Nc2ccc(F)c(C(F)(F)F)c2)[C@H]2CC[C@@H]1/C2=C\C(F)(F)F [Example 226, tert-butyl (2R)-4-(3-{[(1R,2R,3S,4R,7Z)-3-{[4-fluoro-3-(trifluoromethyl)phenyl]carbamoyl}-7-(2,2,2-trifluoroethylidene)bicyclo[2.2.1]heptan-2-yl]carbamoyl}-4-methoxy-benzenesulfonyl)-2-(hydroxymethyl) piperazine-1-carboxylate]  5.76
3. COc1ccc(CC(=O)N2CCC(C)(O)C2)cc1C(=O)NC1C(C(=O)Nc2ccc(F)c(C(F)(F)F)c2)[C@H]2CC[C@@H]1/C2=C\C1CC1 (stereo partly drawn) [Example 357, (1R,4R,7Z)-7-(cyclopropyl-methylidene)-N-[4-fluoro-3-(trifluoromethyl)phenyl]-3-{5-[2-(3-hydroxy-3-methylpyrrolidin-1-yl)-2-oxoethyl]-2-methoxybenzamido} bicyclo[2.2.1]heptane-2-carboxamide]  5.89
4. COc1ccc(CCCN2CCOCC2)cc1C(=O)N[C@@H]1C2CCC(/C2=C/C(F)(F)F)[C@@H]1C(=O)Nc1ccc(F)c(C(F)(F)F)c1 (stereo partly drawn) [Example 121, (2S,3R,7Z)-N-[4-fluoro-3-(trifluoromethyl)phe-nyl]-3-{2-methoxy-5-[3-(morpholin-4-yl)propyl]benzamido}-7-(2,2,2-trifluoroethylidene)bi-cyclo[2.2.1]heptane-2-carboxamide]  5.97
5. COc1ccc(C2CCCC(O)C2)cc1C(=O)N[C@@H]1C2CCC(/C2=C/C(F)(F)F)[C@@H]1C(=O)Nc1ccc(F)c(C(F)(F)F)c1 (single isomer, unassigned) [Example 35]  6.18
6. COc1ccc(S(=O)(=O)N2CCN[C@H](CO)C2)cc1C(=O)N[C@H]1[C@@H](C(=O)Nc2ccc(F)c(C(F)(F)F)c2)[C@H]2CC[C@@H]1/C2=C\C(F)(F)F [Example 212, (1R,2S,3R,4R,7Z)-N-[4-fluoro-3-(trifluoromethyl)phenyl]-3-(5-{[(3S)-3-(hydroxymethyl)piperazin-1-yl]sulfonyl}-2-methoxybenzamido)-7-(2,2,2-trifluoroethylidene) bicyclo[2.2.1] heptane-2-carboxamide]  6.23
7. COCCCc1ccc(OC)c(C(=O)NC2C3CCC(/C3=C/C(F)(F)F)[C@@H]2C(=O)Nc2ccc(F)c(C(F)(F)F)c2)c1 (stereo partly drawn) [Example 189, (2S,3R,7Z)-N-[4-fluoro-3-(trifluoromethyl)phe-nyl]-3-[2-methoxy-5-(3-methoxypropyl)benz-amido]-7-(2,2,2-trifluoroethylidene)bi-cyclo[2.2.1]heptane-2-carboxamide]  6.31
8. COc1ccc(C(=O)N2C[C@H]3CNC[C@H]3C2)cc1C(=O)N[C@H]1[C@@H](C(=O)Nc2ccc(F)c(C(F)(F)F)c2)[C@H]2CC[C@@H]1/C2=C\C1CC1 [Example 249]  6.36
9. COc1ccc(CN2C(=O)CNC2=O)cc1C(=O)N[C@@H]1C2CCC(/C2=C/C2CC2)[C@@H]1C(=O)Nc1ccc(F)c(C(F)(F)F)c1 (stereo partly drawn) [Example 22, (2S,3R,7Z)-7-(cyclopropylmethyli-dene)-3-{5-[(2,5-dioxoimidazolidin-1-yl)methyl]-2-methoxybenzamido}-N-[4-fluoro-3-(trifluoromethyl)phe-nyl]bicyclo[2.2.1]hept-ane-2-carboxamide]  6.38
10. COc1ccc(COCC(=O)O)cc1C(=O)N[C@@H]1C2CCC(/C2=C/c2ccccc2)[C@@H]1C(=O)Nc1ccc(F)c(C(F)(F)F)c1 (stereo partly drawn) [Example 29, 2-[(3-{[(2R,3S,7Z)-3-{[4-fluoro-3-(trifluoromethyl)phe-nyl]carbamoyl}-7-(phenylmethylidene)bicyclo[2.2.1]heptan-2-yl]carbamoyl}-4-methoxyphenyl)meth-oxy]acetic acid]  6.40
11. COc1ccc(CCCCCCC#N)cc1C(=O)NC1C2CCC(/C2=C/C(F)(F)F)[C@@H]1C(=O)Nc1ccc(F)c(C(F)(F)F)c1 (some centres unmarked) [Example 184, (7Z)-3-[5-(6-cyanohexyl)-2-methoxybenzamido]-N-[4-fluoro-3-(trifluoromethyl)phe-nyl]-7-(2,2,2-trifluoroethylidene)bi-cyclo[2.2.1]heptane-2-carboxamide]  6.60
12. COc1ccc(C(C)(C)CCO)cc1C(=O)N[C@H]1[C@@H](C(=O)Nc2ccc(F)c(C(F)(F)F)c2)[C@H]2CC[C@@H]1/C2=C\C1CC1 [Example 269, (1R,2S,3R,4R,7Z)-7-(cyclopropyl-methylidene)-N-[4-fluoro-3-(trifluoromethyl)phenyl]-3-[5-(4-hydroxy-2-methylbutan-2-yl)-2-methoxybenzamido] bicyclo[2.2.1] heptane-2-carboxamide]  6.61
13. COc1ccc(S(=O)(=O)N(CCO)CCO)cc1C(=O)N[C@H]1[C@@H](C(=O)Nc2ccc(F)c(C(F)(F)F)c2)[C@H]2CC[C@@H]1/C2=C\C(F)(F)F [Example 217, (1R,2S,3R,4R,7Z)-3-{5-[bis(2-hydroxyethyl)sulfamoyl]-2-methoxybenzamido}-N-[4-fluoro-3-(trifluoromethyl)phenyl]-7-(2,2,2-trifluoroethylidene) bicyclo[2.2.1] heptane-2-carboxamide]  6.66
14. COc1ccc(CN2C(=O)CN(CCO)C2=O)cc1C(=O)N[C@H]1[C@@H](C(=O)Nc2ccc(F)c(C(F)(F)F)c2)[C@H]2CC[C@@H]1/C2=C\C1CC1 [Example 294, (1R,2S,3R,4R,7Z)-7-(cyclopropyl-methylidene)-N-[4-fluoro-3-(trifluoromethyl)phenyl]-3-(5-{[3-(2-hydroxyethyl)-2,5-dioxoimidazolidin-1-yl]methyl}-2-methoxybenzamido) bicyclo[2.2.1]heptane-2-carboxamide]  6.93
15. COc1ccc(C(=O)N2CCCC(CO)C2)cc1C(=O)N[C@H]1[C@@H](C(=O)Nc2ccc(F)c(C(F)(F)F)c2)[C@H]2CC[C@@H]1/C2=C\C1CC1 (stereo partly drawn) [Example 233, (1R,2S,3R,4R,7Z)-7-(cyclopropyl-methylidene)-N-[4-fluoro-3-(trifluoromethyl)phenyl]-3-[5-[3-(hydroxymethyl)piperidine-1-carbonyl]-2-methoxybenzamido} bicyclo[2.2.1] heptane-2-carboxamide]  7.18
16. (1R,4R,7Z)-7- (cyclopentyl- methylidene)- N-[4-fluoro-3- (trifluoromethyl) phenyl]-3-[5-(3- hydroxy-3- methylbutyl)-2- methoxybenzamido] bicyclo[2.2.1] heptane-2- carboxamide [Example 268]  7.53
17. COc1ccc(C2CCCC(OC(=O)Nc3ccccc3)C2)cc1C(=O)N[C@@H]1C2CCC(/C2=C/C(F)(F)F)[C@@H]1C(=O)Nc1ccc(F)c(C(F)(F)F)c1 (single isomer, unassigned) [Example 40]  7.72
